Test results taken from patent US9415049B2, “Heteroaryl compounds and uses thereof” (Celgene Avilomics Research, Inc., priority 2013, dated 2016).

Key:
[1] = biological target: human recombinant full-length Btk enzyme (Homo sapiens, UniProt Q06187); assay: Omnia Continuous Read Kinase Assay, Btk inhibition; type: biochemical; design: human recombinant full-length Btk enzyme; conditions: 30 minutes pre-incubation at 27° C.; 0.5 nM to 10 μM
From the text: The following Example describes testing certain compounds according to the invention for inhibition of BTK activity. The Omnia® Continuous Read Kinase Assay uses an unnatural amino acid chelation enhanced fluorophore (Sox; 8-hydroxy-5-(N,N-dimethylsulfonamido)-2 methylquinoline) incorporated into a kinase-specific peptide substrate to characterize Btk enzyme kinetics and inhibition. Following Btk-mediated phosphorylation, a sensitive, highly quantifiable increase in real-time fluorescence is noted based upon the ability of chelated Mg2+ to form a bridge between Sox and the phosphate group on a tyrosine residue of the peptide substrate. The Omnia® continuous read assay was performed essentially as described by the vendor (Invitrogen; Carlsbad, Calif.). First, a 10× stock of human recombinant full-length Btk enzyme was prepared in Kinase Reaction Buffer. 5 μL of the 10× enzyme was pre-incubated with 0.5 μL of serially diluted compound prepared in 50% DMSO, in a 384-well microtiter plate for 30 minutes at 27° C. 1.13×ATP and the Tyr5-Sox conjugated peptide substrate were prepared in 1× Kinase Reaction Buffer. Kinase reactions were initiated by the addition of 45 μL of the 1.13×ATP-Sox peptide substrate master mix and monitored every 30 to 90 seconds for 60 minutes at λex360/λem485 in a Synergy plate reader. The IC50 values for each compound assayed were determined from test concentrations of 0.5 nM to 10 μM in half-log intervals performed in duplicate.
At the conclusion of each assay, progress curves from each well were examined for linear reaction kinetics and fit statistics (R2, 95% confidence interval, absolute sum of squares) using GraphPad software (GraphPad Prism version 5.01; San Diego, Calif.). Initial velocity (0 minutes to ˜30+ minutes) from each reaction was determined from the slope of a plot of relative fluorescence units versus time (minutes). Using control normalized % inhibition data, plots were constructed against inhibitor concentration to estimate IC50 from log [inhibitor] versus response using a variable slope model in GraphPad. The compound numbers correspond to the compound numbers in Table 1.

BTK = biological target: T1, BTK (Homo sapiens, UniProt Q06187); assay: Btk target site occupancy, covalent probe ELISA in Ramos cells; type: cell-based; conditions: 1 hour at 37° C., 0.09-200 nM, read-out: Ramos cell EC50 (nM), BTK occupancy
T1 construct: endogenous in cells; host or cells: Ramos cells
Description: A covalent probe shown below was used in an ELISA assay to determine occupancy of the target BTK by certain compounds according to the invention.
Ramos cells were incubated in serum-free RPMI medium for 1 hour (˜2×10^6 cells/mL in 2 mL). Test compounds were diluted from a 10 mM DMSO stock solution, to achieve a final concentration of 0.09, 0.27, 0.82, 2.47, 7.42, 22.2, 66, and 200 nM. Cells were then incubated for 1 hour at 37° C. Following incubation, cells were spun at 1100 RPM for 5 minutes then washed in 200 μL of chilled PBS. Following the wash, cells were spun at 1100 RPM for 5 minutes. The supernatant was aspirated and then cells were resuspended in lysis buffer containing protease and phosphatase inhibitors. This was followed by centrifugation for 15 minutes at 14000 RPM at 4° C. Supernatant was transferred to a fresh tube. Lysates were stored at −80° C. until assayed.
Samples were thawed and mixed well by vortexing for 5 seconds. 60 μL of each sample was added into the 96-well mixing plate followed by addition of 60 μL of covalent probe solution (2 μM probe in PBS+0.05% Tween-20+1% BSA; 1:2 sample dilution) to each well containing sample. An adhesive cover was then placed on the plate followed by mixing of the plate on a shaker for 1 hour at room temperature. The streptavidin plate was pre-washed 3 times with PBS+0.05% Tween-20. 50 μL of the standards, QCs, and samples were then transferred from the mixing plate to the streptavidin plate. The plate was covered with an adhesive cover and mixed while shaking for 1 hour at room temperature. A 1:1000 dilution of the primary anti-Btk antibody (catalog #611116, Becton Dickinson; Franklin Lakes, N.J.) in PBS+0.05% Tween-20+0.5% BSA was prepared. The streptavidin plate was washed 3 times with PBS+0.05% Tween-20 and 50 μL/well of diluted anti-Btk antibody was then pipetted into the streptavidin plate. The plate was covered and incubated for 1 hour at room temperature. A 1:5000 dilution of secondary antibody (goat anti-mouse-HRP, catalog #62-6520, Zymed-Invitrogen; Carlsbad, Calif.) in PBS+0.05% Tween-20+0.5% BSA was prepared. The streptavidin plate was again washed 3 times with PBS+0.05% Tween-20 and 50 μL/well of diluted secondary antibody was pipetted into the streptavidin plate. The plate was covered and incubated for 1 hour at room temperature. The streptavidin plate was again washed 3 times with PBS+0.05% Tween-20 followed by the addition of 100 μL of TMB solution to each well. The plate was then read on a Synergy^2 plate reader at OD 650 nm until the OD maximum reached 1.0. This was followed by the addition of 100 μL of the Stop Solution. The plate was then read at OD 450 nm. A human recombinant Btk protein standard curve (11.7-3000 pg/μL) was plotted using a 4 parameter curve fit in GenS software (Version 1.05.11; Biotek; Winooski, Vt.;). The sample ODs were read against the standard curve to calculate free protein amounts.
Data were generated as ODs on an ELISA plate reader (Synergy^2, BioTek; Winooski, Vt.). Uninhibited Btk captured by the biotinylated covalent probe was quantitated and normalized to untreated control samples. Results were expressed as % Btk occupancy. EC50 values were generated using a 4 parameter curve fit analysis in GraphPad Prism version 5.0.

human recombinant full-length Btk enzyme, sequence (Q06187 whole entry): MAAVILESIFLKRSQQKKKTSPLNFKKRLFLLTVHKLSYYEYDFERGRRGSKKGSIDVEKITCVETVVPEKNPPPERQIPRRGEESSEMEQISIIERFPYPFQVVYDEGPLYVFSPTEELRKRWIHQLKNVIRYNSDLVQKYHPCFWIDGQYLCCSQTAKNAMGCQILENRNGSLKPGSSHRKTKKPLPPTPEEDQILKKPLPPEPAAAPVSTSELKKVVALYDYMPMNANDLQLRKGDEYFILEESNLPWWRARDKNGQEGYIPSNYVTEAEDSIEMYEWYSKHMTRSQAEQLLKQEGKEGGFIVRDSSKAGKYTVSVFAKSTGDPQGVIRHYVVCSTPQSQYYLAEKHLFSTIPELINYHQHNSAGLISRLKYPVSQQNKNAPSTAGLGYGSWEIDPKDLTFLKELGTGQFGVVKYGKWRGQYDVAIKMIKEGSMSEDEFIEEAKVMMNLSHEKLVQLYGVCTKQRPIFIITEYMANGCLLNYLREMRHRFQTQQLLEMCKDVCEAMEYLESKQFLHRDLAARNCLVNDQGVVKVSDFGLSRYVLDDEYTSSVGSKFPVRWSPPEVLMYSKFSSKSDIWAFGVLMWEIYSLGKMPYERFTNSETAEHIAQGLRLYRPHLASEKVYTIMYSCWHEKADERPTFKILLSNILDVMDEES
T1 sequence (Q06187 whole entry): as above

| IC50 [1] [nM] | EC50 (BTK) [nM] | SMILES |
| --- | --- | --- |
| ≤ 10 | < 50 | C=CC(=O)Nc1cccc(Nc2nc(Nc3ccc(OCCO)cc3)ncc2F)c1 [Compound I-1, N-(3-((5-fluoro-2-((4-(2-hydroxyethoxy)phenyl)amino)pyrimidin-4-yl)amino)phenyl)acrylamide] |
| ≤ 10 | < 50 | C=CC(=O)Nc1cccc(Nc2nc(Nc3ccc(O)cc3)ncc2F)c1 [Compound I-3, N-(3-((5-fluoro-2-((4-hydroxyphenyl)amino)pyrimidin-4-yl)amino)phenyl)acrylamide] |
